The target in experiment [1] is T1, rat hepatic microsomal HMG CoA reductase (Rattus norvegicus, UniProt P51639).
T1 construct: rat hepatic microsomal HMG CoA reductase activity in vitro; from tissue; host or cells: rat liver microsomes
T1 sequence (P51639 1-887): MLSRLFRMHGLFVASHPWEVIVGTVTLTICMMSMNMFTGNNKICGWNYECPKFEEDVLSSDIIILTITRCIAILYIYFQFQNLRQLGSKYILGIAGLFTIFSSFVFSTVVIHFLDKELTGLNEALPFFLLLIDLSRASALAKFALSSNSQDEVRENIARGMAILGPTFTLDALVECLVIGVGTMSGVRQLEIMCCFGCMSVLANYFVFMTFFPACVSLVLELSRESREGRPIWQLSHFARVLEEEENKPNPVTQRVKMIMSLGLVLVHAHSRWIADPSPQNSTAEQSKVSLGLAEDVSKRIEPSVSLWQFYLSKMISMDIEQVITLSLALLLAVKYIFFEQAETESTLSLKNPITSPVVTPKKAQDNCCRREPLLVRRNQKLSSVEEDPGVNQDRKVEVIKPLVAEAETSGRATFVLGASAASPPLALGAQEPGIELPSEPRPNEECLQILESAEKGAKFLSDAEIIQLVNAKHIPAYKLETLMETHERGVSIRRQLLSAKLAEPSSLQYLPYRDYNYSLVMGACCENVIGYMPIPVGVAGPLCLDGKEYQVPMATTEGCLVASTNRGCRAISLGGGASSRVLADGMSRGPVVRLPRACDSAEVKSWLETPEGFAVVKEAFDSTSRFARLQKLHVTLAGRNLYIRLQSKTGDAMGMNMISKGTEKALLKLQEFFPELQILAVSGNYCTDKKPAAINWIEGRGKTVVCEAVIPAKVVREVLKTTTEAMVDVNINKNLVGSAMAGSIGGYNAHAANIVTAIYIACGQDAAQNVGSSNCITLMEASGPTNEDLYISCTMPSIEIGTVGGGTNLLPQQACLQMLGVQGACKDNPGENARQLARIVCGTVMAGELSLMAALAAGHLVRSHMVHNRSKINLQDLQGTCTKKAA
Kind of experiment: inhibition in rat hepatic microsomal HMG CoA reductase activity in vitro (Table I). The experiment is classed as biochemical. The note with it: for inhibition at 0.0091 µg/mL: 0.0091 micrograms/ml; for inhibition at 0.0274 µg/mL: 0.0274 micrograms/ml; for inhibition at 0.082 µg/mL: 0.082 micrograms/ml; for inhibition at 0.24 µg/mL: 0.24 micrograms/ml; for inhibition at 0.74 µg/mL: 0.74 micrograms/ml; for inhibition at 2.22 µg/mL: 2.22 micrograms/ml; for inhibition at 0.25 µg/mL: 0.25 micrograms/ml; for inhibition at 0.2 µg/mL: 0.2 micrograms/ml; for inhibition at 20 µg/mL: 20.0 micrograms/ml; for inhibition at 6.7 µg/mL: 6.7 micrograms/ml; for inhibition at 6.66 µg/mL: 6.66 micrograms/ml.

Experiment [2] deals with cholesterol biosynthesis. Nature of the experiment: inhibition in cholesterol biosynthesis, in vivo tests in rats, oral (Table II). From the text: In the table the doses are expressed in mg/kg animal body weight.

Each structure is given as a SMILES string.

Consider `CC(C)c1c(/C=C/[C@@H](O)C[C@@H](O)CC(=O)O)c(-c2ccc(F)cc2)c2c3ccccc3ccn12` (relative stereo) [OA, sodium erythro-(E)-3,5-dihydroxy-7-{3-isopropyl-1-(4-fluorophenyl)pyrrolo[2,1-a]isoquinolin-2-yl}-hept-6-enoate], for which 0.00304 µg/mL produced 37% inhibition in experiment [1] (0.00304 micrograms/ml). In experiment [1], this molecule displayed an inhibition at 0.0091 µg/mL of 43%, an inhibition at 0.0274 µg/mL of 51%, an inhibition at 0.082 µg/mL of 63% and an inhibition at 0.24 µg/mL of 74%. Further, in experiment [1], at 0.74 µg/mL the inhibition was 87% and the inhibition at 2.22 µg/mL turned out to be 95%.
For the molecule `CC(C)c1c(/C=C/[C@@H](O)C[C@H](O)CC(=O)O)c(-c2ccc(F)cc2)c2c3ccccc3ccn12` (relative stereo) [OB, sodium threo-(E)-3,5-dihydroxy-7-{3-isopropyl-1-(4-fluorophenyl)pyrrolo[2,1-a]isoquinolin-2-yl}-hept-6-enoate], in experiment [1], the inhibition at 0.0274 µg/mL amounted to 21%, the inhibition at 0.082 µg/mL stood at 29%, the inhibition at 0.25 µg/mL amounted to 38% and the inhibition at 0.74 µg/mL amounted to 53%. In experiment [1], this molecule had an inhibition at 2.22 µg/mL of 70%.
In turn, `CC(C)c1c(/C=C/C(O)CC(O)CC(=O)[O-])c(-c2ccccc2)c2c3ccccc3ccn12.[Na+]` (centres unmarked) [Compound B, sodium (E)-3,5-dihydroxy-7-(3-isopropyl-1-phenylpyrrolo[2,1-a]isoquinolin-2-yl)hept-6-enoate] yielded an inhibition at 0.025 µg/mL in experiment [1] (0.025 micrograms/ml) of 16%. Moreover, at 0.1 µg/mL the inhibition in experiment [1] (0.1 micrograms/ml) was 28%. This molecule gave an inhibition at 0.2 µg/mL in experiment [1] of 43%. Also, the inhibition at 0.4 µg/mL in experiment [1] (0.4 micrograms/ml) came to 44%. In addition, at 1.6 µg/mL the inhibition in experiment [1] (1.6 micrograms/ml) was 72%. In experiment [1] (2.0 micrograms/ml), at 2 µg/mL the inhibition was 81%. Besides, testing at 6.4 µg/mL in experiment [1] (6.4 micrograms/ml) gave an inhibition of 91%. The molecule also displayed an inhibition at 20 µg/mL in experiment [1] of 98%. The “% Inhibition in cholesterol biosynthesis” value in experiment [2] (oral dose 1.11 mg/kg) worked out at 67%; in experiment [2] (oral dose 3.33 mg/kg) it was 77%; in experiment [2] (oral dose 10.0 mg/kg), 91%.
Molecule `CC(C)c1c(/C=C/C(=O)CC(O)CC(=O)O)c(-c2ccccc2)c2c3ccccc3ccn12` (centres unmarked) [Compound E, (E)-3-hydroxy-7-(3-isopropyl-1-phenylpyrrolo[2,1-a]isoquinolin-2-yl)-5-oxohept-6-enoic acid] showed an inhibition at 2.2 µg/mL in experiment [1] (2.2 micrograms/ml) of 50%. In experiment [1], this molecule had an inhibition at 6.7 µg/mL of 71% and an inhibition at 20 µg/mL of 90%.
Regarding `CC(C)c1c(CCC2CC(O)CC(=O)O2)c(-c2ccccc2)c2c3ccccc3ccn12` (centres unmarked) [Compound G, 4-hydroxy-6-[2-(3-isopropyl-1-phenylpyrrolo[2,1-a]isoquinolin-2-yl)ethyl]-3,4,5,6-tetrahydro-2H-pyran-2-one], in experiment [1], 6.7 µg/mL produced 38% inhibition and the inhibition at 20 µg/mL was 44%.
In experiment [1], `CCOC(=O)CC(O)CC(O)/C=C/c1c(-c2ccccc2)c2c3ccccc3ccn2c1C` (centres unmarked) [Compound H, ethyl (E)-3,5-dihydroxy-7-(3-methyl-1-phenylpyrrolo[2,1-a]-isoquinolin-2-yl)hept-6-enoate] yielded an inhibition at 0.24 µg/mL of 26%, an inhibition at 0.74 µg/mL of 22%, an inhibition at 2.22 µg/mL of 33% and an inhibition at 6.66 µg/mL of 54%. Moreover, the inhibition at 20 µg/mL in experiment [1] is 70%.
In the case of `Cc1c(/C=C/C(O)CC(O)CC(=O)O)c(-c2ccccc2)c2c3ccccc3ccn12` (centres unmarked) [Compound I, sodium (E)-3,5-dihydroxy-7-(3-methyl-1-phenylpyrrolo[2,1-a]isoquinolin-2-yl)hept-6-enoate], in experiment [1], the inhibition at 0.082 µg/mL worked out at 44%, the inhibition at 0.25 µg/mL is 39%, the inhibition at 0.74 µg/mL is 35% and the inhibition at 2.22 µg/mL came out at 46%. For the same molecule, in experiment [1], testing at 6.66 µg/mL gave an inhibition of 68% and the inhibition at 20 µg/mL was determined as 85%.
In experiment [1], `CCc1c(/C=C/C(O)CC(O)CC(=O)O)c(-c2ccc(F)cc2)c2c3ccccc3ccn12` (centres unmarked) [Compound K, sodium (E)-3,5-dihydroxy-7-{3-ethyl-1-(4-fluorophenyl)pyrrolo-[2,1-a]isoquinolin-2-yl}hept-6-enoate] had an inhibition at 0.0274 µg/mL of 27%, an inhibition at 0.082 µg/mL of 33%, an inhibition at 0.24 µg/mL of 46% and an inhibition at 0.74 µg/mL of 68%. In experiment [1], this molecule yielded an inhibition at 2.22 µg/mL of 86% and an inhibition at 6.66 µg/mL of 95%.
In the case of `CC(C)c1c(/C=C/C(O)CC(O)CC(=O)O)c(-c2ccc(F)cc2)n2ccc3ccccc3c12` (centres unmarked) [Compound M, sodium (E)-3,5-dihydroxy-7-{1-isopropyl-3-(4-fluorophenyl)pyrrolo[2,1-a]isoquinolin-2-yl}hept-6-enoate], the inhibition at 0.0025 µg/mL in experiment [1] (0.0025 micrograms/ml) was 33%. The molecule further displayed an inhibition at 0.0074 µg/mL in experiment [1] (0.0074 micrograms/ml) of 46%. This molecule also gave an inhibition at 0.022 µg/mL in experiment [1] (0.022 micrograms/ml) of 63%. The molecule further displayed an inhibition at 0.066 µg/mL in experiment [1] (0.066 micrograms/ml) of 69%. In experiment [1], this molecule returned an inhibition at 0.2 µg/mL of 74%, an inhibition at 0.74 µg/mL of 78%, an inhibition at 2.22 µg/mL of 90% and an inhibition at 6.66 µg/mL of 96%. Also, the inhibition at 20 µg/mL in experiment [1] is 98%. Also, 0.22 µg/mL produced 65% inhibition in experiment [1] (0.22 micrograms/ml).
Regarding `CC(C)c1c(/C=C/C(=O)CC(O)CC(=O)O)c(-c2ccc(F)cc2)c2c3ccccc3ccn12` (centres unmarked) [Compound Q, sodium (E)-3-hydroxy-7-{3-isopropyl-1-(4-fluorophenyl)pyrrolo-[2,1-a]isoquinolin-2-yl}-5-oxohept-6-enoate], in experiment [1], the inhibition at 0.082 µg/mL is 8%, the inhibition at 0.24 µg/mL was 22%, the inhibition at 0.74 µg/mL is 45% and the inhibition at 2.22 µg/mL came to 70%. For the same molecule, in experiment [1], the inhibition at 6.66 µg/mL was found to be 89%.
In experiment [1], `CCOC(=O)CC(O)CC(O)/C=C/c1c(-c2ccc(F)cc2)c2c3ccccc3ccn2c1C(C)C` (centres unmarked) [N, ethyl (E)-3,5-dihydroxy-7-{3-isopropyl-1-(4-fluorophenyl)pyrrolo[2,1-a]isoquinolin-2-yl}hept-6-enoate] showed an inhibition at 0.0091 µg/mL of 44%, an inhibition at 0.0274 µg/mL of 55%, an inhibition at 0.082 µg/mL of 61% and an inhibition at 0.25 µg/mL of 74%. In addition, in experiment [1], the inhibition at 0.74 µg/mL came out at 87% and at 2.22 µg/mL the inhibition was 95%.
In experiment [1], `CC(C)c1c(/C=C/C(O)CC(O)CC(=O)O)c(-c2ccc(F)cc2)c2c3ccccc3ccn12` (centres unmarked) [O, sodium (E)-3,5-dihydroxy-7-{3-isopropyl-1-(4-fluorophenyl)pyrrolo[2,1-a]isoquinolin-2-yl}-hept-6-enoate] registered an inhibition at 0.24 µg/mL of 69%, an inhibition at 0.74 µg/mL of 81%, an inhibition at 2.22 µg/mL of 92% and an inhibition at 6.66 µg/mL of 97%. The same molecule gave an inhibition at 20 µg/mL in experiment [1] of 99%.

One may read the inhibition as the change of the read-out against control, counted positive when it falls.

These data come from patent US4933350A, “Pyrroloisoquinolines useful as hypercholesterolemic and hyperlipoprotienimic agents” (May & Baker Limited, priority 1987, dated 1990).
